The results in this text go back to patent US7875297B2, “Method for treating menorrhagia” (Ablation Products LLC, priority 2003, dated 2011).

In this assay the test system is beef muscle tissue (fillet mignon). Put plainly: Tissue necrosis with AgNO3 bearing beads placed on the surface of beef muscle tissue. From the text: The degree of necrosis was rated as follows: slight visible pitting of the tissue surface (+); moderate pitting of tissue surface with slight blackening of the tissue (++); significant pitting with moderate blackening of the tissue (+++); severe pitting with complete blackening of the tissue ([…]+); and severe pitting with complete blackening of the tissue, spreading beyond the point of contact (+++++).

As for `O=[N+]([O-])[O-].[Ag+]` [AgNO3 Crystal, silver nitrate], the “Tissue Necrosis (degree of necrosis of the tissue under each bead)” value (shortened to “Tissue Necrosis”) (Time 5 minutes) was “+ + +”, the “Tissue Necrosis” value (Time 10 minutes) was “+ + + +” and the “Tissue Necrosis” value (Time 15 minutes) is “+ + + + +”.
